# Assays:
# [1] = Dissolution in water: stirring in water for 1/2 hour, filtration, recovery of IPBC (Example 2); type: physicochemical; conditions: 4 g IPBC in 96 g water, stirred 1/2 hour
# Description: Four grams of IPBC were added to 96 g of water and stirred for 1/2 hour. The resulting slurry was filtered off and the filter cake was dried and weighed. […] Approximately 27 g of the lyophilized inclusion complex prepared in Example 1 was added to 73 g water and the mixture was stirred for 1/2 hour. […] Use of the inclusion complex in this manner thus affords approximately 4% solution of IPBC in water, which is a solubility enhancement of approximately 250-300 times.
# [2] = Thermal decomposition point; type: physicochemical; conditions: pure IPBC or IPBC in the inclusion complex
# Description: The melting point of pure IPBC is 66-67° C. and its decomposition occurs at about 150-155° C., leading to formation of highly colored by-products. The decomposition point of IPBC in the inclusion complex of Examples 1 and 3 was determined to be about 222-225° C.
smiles,measurement,setting,value
"CCCCNC(=O)OCC#CI [IPBC, 3-iodo-2-propynyl butylcarbamate]",IPBC recovered in the filter cake,[1],Approximately 98%
same,decomposition point,[2],150-155 °C
